From PubChem BioAssay (NCI)
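Step 1: Grow cells in 96-well plates. Step 2: Expose to compound for 48 hours at 5 concentrations. Step 3: Interpolate endpoints linearly; if unreached, use highest concentration. GI50 is the concentration that inhibits growth by half. TGI: concentration producing complete growth inhibition.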

Assays:
Assay in all cases: NCI tumour cell line growth inhibition, 48 h; in the data active means GI50 below about 0.43 µM; inactive means the rest
[1] = system: M14 melanoma
[2] = system: TK-10 renal
[3] = system: COLO 205 colon
[4] = system: HCC-2998 colon
[5] = system: OVCAR-4 ovarian
[6] = system: MDA-MB-435
[7] = system: HCT-116 colon
[8] = system: DU-145 prostate
[9] = system: RPMI-8226 leukemia
[10] = system: EKVX NSCLC
[11] = system: SR leukemia
[12] = system: LOX IMVI melanoma
[13] = system: MDA-MB-231 breast
[14] = system: SF-268 CNS
[15] = system: SF-295 CNS
[16] = system: UACC-62 melanoma
[17] = system: KM12 colon
[18] = system: SK-MEL-28 melanoma
[19] = system: A549 NSCLC
[20] = system: RXF 393 renal
[21] = system: PC-3 prostate
[22] = system: MOLT-4 leukemia
[23] = system: HT29 colon
[24] = system: NCI-H23 lung
[25] = system: T-47D breast
[26] = system: HCT-15 colon
[27] = system: SNB-75 CNS
[28] = system: NCI-H460 lung
[29] = system: CAKI-1 renal
[30] = system: A498 renal
[31] = system: SW-620 colon
[32] = system: IGROV1 ovarian
[33] = system: SF-539 CNS
[34] = system: SK-OV-3 ovarian
[35] = system: NCI-H226 lung
[36] = system: ACHN renal
[37] = system: HOP-92 NSCLC
[38] = system: SNB-19 CNS
[39] = system: CCRF-CEM leukemia
[40] = system: MCF7 breast
[41] = system: SN12C renal
[42] = system: K-562 leukemia
[43] = system: U251 CNS
[44] = system: UO-31 renal
[45] = system: MALME-3M melanoma
[46] = system: HL-60(TB) leukemia
[47] = system: OVCAR-5 ovarian
[48] = system: SK-MEL-5 melanoma
[49] = system: 786-0 renal
[50] = system: NCI/ADR-RES ovarian
[51] = system: BT-549 breast
[52] = system: HS 578T breast
[53] = system: OVCAR-3 ovarian
[54] = system: OVCAR-8 ovarian
[55] = system: SK-MEL-2 melanoma
[56] = system: HOP-62 NSCLC
[57] = system: NCI-H522 lung

Cc1c([C@H](C(Cl)Cl)[C@H](O)[C@H]2C[C@H](C)C(=O)O2)ccc2c1C(=O)[C@H]1[C@H]2C[C@@H](Br)[C@@]23O[C@@H](CO[C@H]2O)CC13C (stereo partly specified)
2530 nM: TGI [15]
2790 nM: TGI [33]
21900 nM: TGI [49]
inactive: GI50 [2] 1680 nM | GI50 [5] 1370 nM | GI50 [10] 695 nM | GI50 [12] 602 nM | GI50 [13] 561 nM | GI50 [14] 586 nM | GI50 [19] 435 nM | GI50 [20] 467 nM | GI50 [22] 1120 nM | GI50 [27] 454 nM | GI50 [29] 798 nM | GI50 [32] 845 nM | GI50 [35] > 12700 nM | GI50 [36] 2260 nM | GI50 [37] 636 nM | GI50 [41] 881 nM | GI50 [44] 8890 nM | GI50 [49] 481 nM | GI50 [50] 2170 nM | GI50 [51] 1010 nM | GI50 [52] 708 nM | GI50 [54] 449 nM | GI50 [56] 571 nM
425 nM: TGI [6]
> 36300 nM: TGI [51]
4070 nM: TGI [34]
> 45300 nM: TGI [37]
1120 nM: TGI [4]
1690 nM: TGI [57]
active: GI50 [1] 207 nM | GI50 [3] 213 nM | GI50 [4] 215 nM | GI50 [6] 136 nM | GI50 [7] 206 nM | GI50 [8] 157 nM | GI50 [9] 240 nM | GI50 [11] 153 nM | GI50 [15] 220 nM | GI50 [16] 324 nM | GI50 [17] 260 nM | GI50 [21] 330 nM | GI50 [23] 179 nM | GI50 [24] 295 nM | GI50 [25] 258 nM | GI50 [26] 373 nM | GI50 [28] 187 nM | GI50 [30] 304 nM | GI50 [31] 309 nM | GI50 [33] 304 nM | GI50 [34] 292 nM | GI50 [38] 380 nM | GI50 [39] 330 nM | GI50 [40] 172 nM | GI50 [42] 217 nM | GI50 [43] 262 nM | GI50 [45] 275 nM | GI50 [46] 112 nM | GI50 [47] 314 nM | GI50 [48] 186 nM | GI50 [53] 181 nM | GI50 [55] 403 nM | GI50 [57] 183 nM
> 39500 nM: TGI [52]
> 50000 nM: TGI [2] | TGI [5] | TGI [9] | TGI [10] | TGI [11] | TGI [12] | TGI [14] | TGI [16] | TGI [18] | TGI [19] | TGI [21] | TGI [22] | TGI [23] | TGI [25] | TGI [26] | TGI [27] | TGI [28] | TGI [31] | TGI [35] | TGI [36] | TGI [38] | TGI [39] | TGI [40] | TGI [41] | TGI [42] | TGI [43] | TGI [44] | TGI [45] | TGI [46] | TGI [47] | TGI [54] | TGI [56]
11000 nM: TGI [50]
1090 nM: TGI [3]
> 15200 nM: TGI [13]
> 11100 nM: TGI [30]
> 29500 nM: TGI [29]
> 22200 nM: TGI [55]
> 15300 nM: TGI [24]
3970 nM: TGI [48]
> 29600 nM: TGI [32]
> 16600 nM: TGI [17]
5070 nM: TGI [7]
2050 nM: TGI [8]
1180 nM: TGI [1]
